Patent US11548868B2, “Heterocyclic compounds, compositions comprising heterocyclic compound, and methods of use thereof” (JS INNOPHARM (SHANGHAI) LTD, priority 2017, dated 2023)

Experiments:
[1] = molecular target: T1, TDO2 in A172 cancer cells (Homo sapiens, UniProt P48775); assay: TDO2 Cellular Assay (kynurenine production in A172 cancer cells); format: cell-based; conditions: L-Trp 1 mM, 24 hours incubation, kynurenine at 490 nm
T1 construct: endogenous in cells; host or cells: A172 cancer cells
T1 sequence (P48775 whole entry): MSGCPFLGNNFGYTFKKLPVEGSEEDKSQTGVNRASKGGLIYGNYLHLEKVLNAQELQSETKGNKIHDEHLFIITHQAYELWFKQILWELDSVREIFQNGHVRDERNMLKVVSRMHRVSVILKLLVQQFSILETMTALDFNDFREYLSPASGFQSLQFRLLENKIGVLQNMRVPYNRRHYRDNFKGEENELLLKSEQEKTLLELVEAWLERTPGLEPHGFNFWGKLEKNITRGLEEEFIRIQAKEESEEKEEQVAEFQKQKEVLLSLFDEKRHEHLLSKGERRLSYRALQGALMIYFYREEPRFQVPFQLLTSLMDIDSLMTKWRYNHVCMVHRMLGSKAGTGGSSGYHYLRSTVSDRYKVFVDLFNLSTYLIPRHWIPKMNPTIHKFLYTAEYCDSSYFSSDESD
Procedure: A172 cancer cells (3×10^4 per well) in 85 μL DMEM medium containing 10% FBS were seeded in a 96-well plate and incubated at 95% humidity and 5% CO2 at 37° C. for overnight. On the next day, L-Trp solution (10 μL, 1 mM final concentration) and serial dilutions of the test compounds and DMEM medium resulting in a total final volume of 100 μL each well. The test compounds were dissolved in DMSO and successively diluted with pH7.5 butter (with final DMSO concentration of 0.25%) resulting in final concentrations of the test compounds ranging from 0 to 25 μM (0, 2.5, 7.5, 25, 75, 250, 750, 2500, 7500, & 25000 nM). After 24 hours of incubation, 70 uL of the supernatant per well was transferred to a new 96 well plate. 8 μL of trichloroacetic acid (6.1 N) was mixed into each well and incubated at 50° C. for 30 min to hydrolyze N-formylkynurenine to kynurenine. The reaction mixture was then centrifuged for 10 min at 2500 RPM to remove sediments. 50 μL of the supernatant per well was transferred to another 96 well plate and mixed with 50 μL of 2% (w/v) p-dimethylaminobenzaldehyde in acetic acid. The yellow color derived from kynurenine was measured at 490 nm using a microplate reader. Percent inhibition of the test compounds was determined by measuring the decrease in kynurenine as compared to the control of DMSO vehicle, which was calculated by formula of (WC−WT)/WC, where WC is the mean absorbance of the control well minus blank well; WT is the mean absorbance of the test well minus the blank well. Data was analyzed by GraphPad Prism 5 and the IC50 values were obtained by non-linear regression.
(§1) The IC50 values of for Compounds disclosed are listed in Table 2, A′: ≤0.5 μM; B′: >0.5 μM and ≤1 μM; C′: >1.0 μM and ≤5 uM; and D′: >5 μM.

[2] = molecular target: T2, IDO1 in Hela cancer cells (Homo sapiens, UniProt P14902); assay: IDO1 Cellular Assay (kynurenine production in IFN-γ stimulated Hela cancer cells); format: cell-based; conditions: human IFN-γ 50 ng/mL, 48 hours incubation, kynurenine at 490 nm
T2 construct: endogenous in cells; host or cells: Hela cancer cells stimulated with human IFN-γ
T2 sequence (P14902 whole entry): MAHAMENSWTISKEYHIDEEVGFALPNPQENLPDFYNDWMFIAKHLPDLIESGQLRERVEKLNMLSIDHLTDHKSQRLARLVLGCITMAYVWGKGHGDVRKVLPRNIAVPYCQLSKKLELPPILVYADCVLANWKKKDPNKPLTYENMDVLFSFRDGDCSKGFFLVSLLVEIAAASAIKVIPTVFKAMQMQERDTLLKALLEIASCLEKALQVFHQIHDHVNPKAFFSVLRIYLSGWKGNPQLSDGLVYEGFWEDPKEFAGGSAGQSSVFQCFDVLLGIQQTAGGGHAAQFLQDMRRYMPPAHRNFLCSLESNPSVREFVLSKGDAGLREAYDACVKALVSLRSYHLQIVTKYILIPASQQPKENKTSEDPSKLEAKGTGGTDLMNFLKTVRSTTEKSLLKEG
Procedure: Hela cancer cells (5×10^3 per well) with 85 μL DMEM medium containing 10% FBS were seeded in a 96-well plate and incubated at 95% humidity and 5% CO2 at 37° C. for 24 hours. human IFN-γ (10 μL, 50 ng/mL final concentration) and 5 μL serial dilutions of the test compounds were added into each well. The test compounds were dissolved in DMSO, and successively diluted with pH7.5 buffer (with final DMSO concentration of 0.25%) resulting in final concentrations of the test compounds ranging from 0 to 25 μM (0, 2.5, 7.5, 25, 75, 250, 750, 2500, 7500, & 25000 nM). After 48 hours of incubation, 70 uL of the supernatant per well was transferred to a new 96 well plate. Trichloroacetic acid (6.1 N, 8 μL) was mixed into each well and incubated at 50° C. for 30 min to hydrolyze N-formylkynurenine produced by IDO to kynurenine. The reaction mixture was then centrifuged for 10 min at 2500 RPM to remove sediments. 50 μL of the supernatant per well was transferred to another 96 well plate and mixed with 50 uL of 2% (w/v) p-dimethylaminobenzaldehyde in acetic acid. The yellow color derived from kynurenine was measured at 490 nm using a microplate reader. Percent inhibition of the test compounds was determined by measuring the decrease in kynurenine as compared to the control of DMSO vehicle, which was calculated by formula of (WC-WT)/WC, where WC is the mean absorbance of the control well minus blank well; WT is the mean absorbance of the test well minus the blank well. Data was analyzed by GraphPad Prism 5 and the IC50 values were obtained by non-linear regression.
as §1

| Compound | IC50 [1] [nM] | IC50 [2] [nM] |
| --- | --- | --- |
| O=C(N[C@H]1[C@@H]2C[C@@](O)(c3cc(Cl)cc4[nH]ncc34)C[C@@H]21)c1cnoc1 [Example 158, N-((1R,3r,5S,6r)-3-(6-chloro-1H-indazol-4-yl)-3-hydroxybicyclo[3.1.0]hexan-6-yl)isoxazole-4-carboxamide] | 1000 to 5000 | > 5000 |
| CNC(=O)N[C@H]1[C@@H]2C[C@@](O)(c3cc(Cl)cc4[nH]ncc34)C[C@@H]21 [Example 114, 1-((1R,3r,5S,6r)-3-(6-chloro-1H-indazol-4-yl)-3-hydroxybicyclo[3.1.0]hexan-6-yl)-3-methylurea] | ≤ 500 | > 5000 |
| O[C@@H]1C[C@@H]2C[C@@](O)(c3cc(Cl)cc4cn[nH]c34)C[C@@H]2C1 [Example 106, (2r,3aR,5s,6aS)-2-(5-chloro-1H-indazol-7-yl)octahydropentalene-2,5-diol] | 500 to 1000 | > 5000 |
| O=C(C1CC1)N1C[C@@H]2C[C@@](O)(c3cc(Cl)cc4[nH]ncc34)C[C@@H]2C1 [Example 38, ((3aR,5r,6aS)-5-(6-chloro-1H-indazol-4-yl)-5-hydroxyhexahydrocyclopenta[c]pyrrol-2(1H)-yl)(cyclopropyl)methanone] | ≤ 500 | > 5000 |
| CNS(=O)(=O)N[C@H]1[C@@H]2C[C@@](O)(c3cc(C(F)(F)F)cc4[nH]ncc34)C[C@@H]21 [Example 162, N′-methyl-N-((1R,3r,5S,6r)-3-hydroxy-3-(6-(trifluoromethyl)-1H-indazol-4-yl)bicyclo[3.1.0]hexan-6-yl)sulfuric diamide] | ≤ 500 | ≤ 500 |
| O=C(N[C@H]1[C@@H]2C[C@@](O)(c3cc(Cl)cc4[nH]ncc34)C[C@@H]21)c1cccc(C(F)(F)F)c1 [Example 142, N-((1R,3r,5S,6r)-3-(6-chloro-1H-indazol-4-yl)-3-hydroxybicyclo[3.1.0]hexan-6-yl)-3-(trifluoromethyl)benzamide] | ≤ 500 | ≤ 500 |
| CC(=O)N1C[C@H]2CC(C(O)c3cc(Cl)cc4[nH]ncc34)C[C@H]2C1 (stereo partly drawn) [Example 104, 1-((3aR,6aS)-5-((6-chloro-1H-indazol-4-yl)(hydroxy)methyl)hexahydrocyclopenta[c]pyrrol-2(1H)-yl)ethanone] | 500 to 1000 | > 5000 |
| O=C(N[C@H]1[C@@H]2C[C@@](O)(c3cc(Cl)cc4[nH]ncc34)C[C@@H]21)c1ccc(F)c(Br)c1 [Example 176, 3-bromo-N-((1R,3r,5S,6r)-3-(6-chloro-1H-indazol-4-yl)-3-hydroxybicyclo[3.1.0]hexan-6-yl)-4-fluorobenzamide] | ≤ 500 | ≤ 500 |

Next, values leading:

| IC50 [1] [nM] | IC50 [2] [nM] | Compound |
| --- | --- | --- |
| ≤ 500 | > 5000 | CC(=O)N[C@H]1C[C@@H]2C[C@@](O)(c3cc(Cl)cc4[nH]ncc34)C[C@@H]2C1 [Example 167, N-((2r,3aR,5r,6aS)-5-(6-chloro-1H-indazol-4-yl)-5-hydroxyoctahydropentalen-2-yl)acetamide] |
| ≤ 500 | > 5000 | CC(=O)N[C@H]1[C@@H]2C[C@@](O)(c3cc(C(F)(F)F)cc4[nH]ncc34)C[C@@H]21 [Example 164, N-((1R,3r,5S,6r)-3-hydroxy-3-(6-(trifluoromethyl)-1H-indazol-4-yl)bicyclo[3.1.0]hexan-6-yl)acetamide] |
| ≤ 500 | 1000 to 5000 | O=S(=O)(NC1CCCCC1)N[C@H]1[C@@H]2C[C@@](O)(c3cc(Cl)cc4[nH]ncc34)C[C@@H]21 [Example 123, N′-cyclohexyl-N-((1R,3r,5S,6r)-3-(6-chloro-1H-indazol-4-yl)-3-hydroxybicyclo[3.1.0]hexan-6-yl)sulfuric diamide] |
| ≤ 500 | 1000 to 5000 | O=C(N[C@H]1[C@@H]2C[C@@](O)(c3cc(Cl)cc4[nH]ncc34)C[C@@H]21)c1ccnc2ccccc12 [Example 169, N-((1R,3r,5S,6r)-3-(6-chloro-1H-indazol-4-yl)-3-hydroxybicyclo[3.1.0]hexan-6-yl)quinoline-4-carboxamide] |
